Reference: US20140112992A1, “PROCESS FOR FEBUXOSTAT” (HETERO RESEARCH FOUNDATION, priority 2011, published 2014)

How the values were obtained:
[1] = Particle size distribution (D50) by laser diffraction, Sympatec Helos; format: physicochemical
Excerpt: The term “Particle Size Distribution (P.S.D.)” means the cumulative volume size distribution of equivalent spherical diameters as determined by laser diffraction at 1 bar dispersive pressure in Sympatec Helos equipment. “Mean particle size distribution, i.e., D50” correspondingly, means the median of said particle size distribution.

levels of uric acid = settings: compared to allopurinol; cited from earlier work

D50 (mean particle size distribution) ([1]; after grinding for 5 to 10 minutes) [μm]	D50 (mean particle size distribution) ([1]; before grinding, in µm (unit assumed))	SMILES	amount of initial gout flares or surface area of gout tophi (levels of uric acid)	individuals with decreased levels of uric acid (levels of uric acid)
2.15	322.46	Cc1nc(-c2ccc(OCC(C)C)c(C#N)c2)sc1C(=O)O [Febuxostat crystalline Form H1, 2-[3-cyano-4-(2-methylpropoxy)phenyl]-4-methyl-5-thiazolecarboxylic acid]	–	–
–	–	Cc1nc(-c2ccc(OCC(C)C)c(C#N)c2)sc1C(=O)O [febuxostat, 2-[3-cyano-4-(2-methylpropoxy)phenyl]-4-methyl-5-thiazolecarboxylic acid]	no difference	more individuals treated with febuxostat had decreased levels of uric acid
